Results from publication PMC7994819, “Pharmacokinetics and metabolomics investigation of an orally modified formula of standardized Centella asiatica extract in healthy volunteers” (Scientific Reports, 2021).
Where two headings read alike, the source gives them in different places.

What was measured:
[1] = Urine and feces excretion after oral modified formula ECa 233 capsules (LC–MS/MS); assay type: in vivo, human (healthy Thai volunteers)
Procedure: This was a single-center, with an open-label, two-sequence of dosages (250 and 500 mg), two-periods of study (single and multiple dose) conducted in fasting condition (Fig. 1). […] All blood samples were centrifuged at 4 °C, 3200 × g for 10 min. […] Feces were also collected from one of the volunteers for detecting the possible presence of any eliminated compounds. Feces samples were collected each time that a volunteer defecated on day 1-3, 4-6 and 7-9 during the study period. These samples were immediately fixed with methanol and prepared by our previously described method of protein precipitation. […] Plasma, urine and fecal samples were then stored at - 80 °C until analysis. Sample preparation was performed by protein precipitation with two internal standards (glycerrhizin and […]) to correct the quantitative analysis of parent compounds and of their metabolites. Briefly, 200 μL of methanol was added followed by vortex mixing with 50 μL of each sample for 10 min and then centrifuged at 12,000 × g, 4 °C, 10 min. […] The MS/MS system was operated using an ESI source in negative mode with MRM.

[2] = Clinical pharmacokinetics in plasma (LC–MS/MS, non-compartmental analysis) after oral modified formula ECa 233 capsules; assay type: in vivo, human (healthy Thai volunteers)
Procedure: This was a single-center, with an open-label, two-sequence of dosages (250 and 500 mg), two-periods of study (single and multiple dose) conducted in fasting condition (Fig. 1). […] All blood samples were centrifuged at 4 °C, 3200 × g for 10 min. […] Feces were also collected from one of the volunteers for detecting the possible presence of any eliminated compounds. Feces samples were collected each time that a volunteer defecated on day 1-3, 4-6 and 7-9 during the study period. These samples were immediately fixed with methanol and prepared by our previously described method of protein precipitation. […] Plasma, urine and fecal samples were then stored at - 80 °C until analysis. […] Then they had another set of blood and urine samples collected similar to the single dose study. […] Sample preparation was performed by protein precipitation with two internal standards (glycerrhizin and […]) to correct the quantitative analysis of parent compounds and of their metabolites. Briefly, 200 μL of methanol was added followed by vortex mixing with 50 μL of each sample for 10 min and then centrifuged at 12,000 × g, 4 °C, 10 min. Quantitative determination of the parent compounds and their active metabolites in plasma and urine were carried out by using liquid chromatography tandem mass spectrometry (LC-MS/MS): LCMS-8060 (Shimadzu Corp. Japan) according to a previously validated and published bioanalytical method. […] The MS/MS system was operated using an ESI source in negative mode with MRM. For m/z transition; […] Non-compartmental analysis was applied to determine pharmacokinetic parameters and performed by PK solutions software (version 2.0). […] The apparent clearance (Cl/F) after oral administration was calculated as Cl/F = Dose/AUC, where F is the absolute oral bioavailability. The apparent volume of distribution (Vd/F) was estimated using Vd/F = Dose/(AUC × kel). The Cmax and Tmax were determined directly from the observed concentration-time curve.

[3] = in vivo; cited from earlier work
[4] = human, plasma, po, 250 mg, plasma, multiple dose oral, Day 7 (T0-72 h), ECa 233 250 mg daily, mean ± SD, n=12, read-out: AUC
[5] = human, plasma, po, 250 mg, plasma, multiple dose oral, Day 7 (T0-72 h), ECa 233 250 mg daily, mean ± SD, n=12, read-out: Cmax
[6] = human, plasma, po, 250 mg, plasma, multiple dose oral, Day 7 (T0-72 h), ECa 233 250 mg daily, median [IQR], n=12, read-out: Tmax
[7] = human, plasma, po, 250 mg, plasma, single dose oral, Day 1 (T0-24 h), ECa 233 250 mg, mean ± SD, n=12, read-out: AUC
[8] = human, plasma, po, 250 mg, plasma, single dose oral, Day 1 (T0-24 h), ECa 233 250 mg, mean ± SD, n=12, read-out: Cmax
[9] = human, plasma, po, 250 mg, plasma, single dose oral, Day 1 (T0-24 h), ECa 233 250 mg, median [IQR], n=12, read-out: Tmax
[10] = human, plasma, po, 500 mg, plasma, multiple dose oral, Day 7 (T0-72 h), ECa 233 500 mg daily, mean ± SD, n=11, read-out: AUC
[11] = human, plasma, po, 500 mg, plasma, multiple dose oral, Day 7 (T0-72 h), ECa 233 500 mg daily, mean ± SD, n=11, read-out: Cmax
[12] = human, plasma, po, 500 mg, plasma, multiple dose oral, Day 7 (T0-72 h), ECa 233 500 mg daily, median [IQR], n=11, read-out: Tmax
[13] = human, plasma, po, 500 mg, plasma, single dose oral, Day 1 (T0-24 h), ECa 233 500 mg, mean ± SD, n=11, read-out: AUC
[14] = human, plasma, po, 500 mg, plasma, single dose oral, Day 1 (T0-24 h), ECa 233 500 mg, mean ± SD, n=11, read-out: Cmax
[15] = human, plasma, po, 500 mg, plasma, single dose oral, Day 1 (T0-24 h), ECa 233 500 mg, median [IQR], n=11, read-out: Tmax
[16] = plasma, oral modified formula ECa 233 capsules

C[C@H]1[C@H](C)CC[C@]2(C(=O)O)CC[C@]3(C)C(=CC[C@@H]4[C@@]5(C)C[C@@H](O)[C@H](O)[C@@](C)(CO)[C@@H]5CC[C@]43C)[C@H]12 [ASA, Asiatic acid]
presence in feces ([1]; fecal samples from one volunteer): found in the feces | elimination into urine ([1]; urine 0–24 h after oral dosing of 250 or 500 mg ECa 233): absence of the metabolites in the urine | AUC [2, 4]: 1010 ± 221 ng·h/mL | Cmax [2, 5]: 78.2 ± 26.4 ng/mL | Tmax [2, 6]: 1.5 h | AUC [2, 7]: 648 ± 117 ng·h/mL | Cmax [2, 8]: 79.8 ± 19.3 ng/mL | Tmax [2, 9]: 1.5 h | AUC [2, 10]: 1390 ± 333 ng·h/mL | Cmax [2, 11]: 170 ± 53.8 ng/mL | Tmax [2, 12]: 1.5 h | AUC [2, 13]: 733 ± 150 ng·h/mL | Cmax [2, 14]: 102 ± 20.8 ng/mL | Tmax [2, 15]: 1.5 h | time after dosing at which Cmax was observed [2, 16]: 1 to 2 h

C[C@H]1[C@H](C)CC[C@]2(C(=O)O)CC[C@]3(C)C(=CC[C@@H]4[C@@]5(C)C[C@@H](O)[C@H](O)[C@@](C)(CO)[C@@H]5[C@H](O)C[C@]43C)[C@H]12 [MDA, Madecassic acid]
AUC [2, 4]: 437 ± 175 ng·h/mL | Cmax [2, 5]: 61.4 ± 20.5 ng/mL | Tmax [2, 6]: 2 h | AUC [2, 7]: 410 ± 100 ng·h/mL | Cmax [2, 8]: 66.1 ± 17.1 ng/mL | Tmax [2, 9]: 1.5 h | AUC [2, 10]: 516 ± 157 ng·h/mL | Cmax [2, 11]: 99.8 ± 27.6 ng/mL | Tmax [2, 12]: 1.5 h | AUC [2, 13]: 476 ± 117 ng·h/mL | Cmax [2, 14]: 72.3 ± 16.3 ng/mL | Tmax [2, 15]: 1.5 h | time after dosing at which Cmax was observed [2, 16]: 1 to 2 h

Madecassoside [MDS]
excretion (0–72 h) in feces [3]: 24.68% | excretion (0–72 h) in urine [3]: 0.25% | time after dosing at which Cmax was observed ([2]; human, in vivo, po): ≤ 1 h | AUC ([2]; human, in vivo, po, 250 mg): 75.38 ± 26.60 ng·h/mL | Cmax ([2]; human, in vivo, po, 250 mg): 9.57 ± 3.34 ng/mL | Tmax ([2]; human, in vivo, po, 250 mg): 1 [0.5] h | AUC ([2]; human, in vivo, po, 500 mg): 141.16 ± 41.15 ng·h/mL | Cmax ([2]; human, in vivo, po, 500 mg): 12.73 ± 2.73 ng/mL | Tmax ([2]; human, in vivo, po, 500 mg): 1 [0.5] h
